Each molecule was assayed on recombinant NL4-3 virus (NLRluc, Renilla luciferase in nef, Gag P373S) (assay: HIV cell culture assay (Renilla luciferase reporter virus in MT-2 cells)). Details: Renilla, NL43, read-out: 10% FBS EC50, 10% FBS, class symbols A/B/C.
Assay type: cell-based
Method: MT-2 cells and 293T cells were obtained from the NIH AIDS Research and Reference Reagent Program. MT-2 cells were propagated in RPMI 1640 media supplemented with 10% heat inactivated fetal bovine serum, […]. The 293T cells were propagated in DMEM media supplemented with 10% heat inactivated fetal bovine serum (FBS), 100 units/ml penicillin G and 100 μg/ml streptomycin. The proviral DNA clone of NL4-3 was obtained from the NIH AIDS Research and Reference Reagent Program. A recombinant NL4-3 virus, in which a section of the nef gene from NL4-3 was replaced with the Renilla luciferase gene, was used as a reference virus. In addition, residue Gag P373 was converted to P373S. Briefly, the recombinant virus was prepared by transfection of the altered proviral clone of NL4-3. Transfections were performed in 293T cells using LipofectAMINE PLUS from Invitrogen (Carlsbad, Calif.), according to manufacturer's instruction. The virus was titered in MT-2 cells using luciferase enzyme activity as a marker. Luciferase was quantitated using the Dual Luciferase kit from Promega (Madison, Wis.), with modifications to the manufacturer's protocol. The diluted Passive Lysis solution was pre-mixed with the re-suspended Luciferase Assay Reagent and the re-suspended Stop & Glo Substrate (2:1:1 ratio). Fifty (50) μL of the mixture was added to each aspirated well on assay plates and luciferase activity was measured immediately on a Wallac TriLux (Perkin-Elmer). Antiviral activities of inhibitors toward the recombinant virus were quantified by measuring luciferase activity in cells infected for 4-5 days with NLRluc recombinants in the presence serial dilutions of the inhibitor. Table 16 is the key for the data in Table 17.
With `CC1(C)C(c2ccc(C(=O)O)cc2)=CC[C@]2(C)CN(c3cc(C(=O)O)cc([N+](=O)[O-])c3)CC=C12` [Example B15] the EC50 was greater than 3000 nM.
Work on `CC1(C)C(c2ccc(C(=O)O)cc2)=CC[C@]2(C)CN(C(=O)c3ccc(F)cc3F)CC=C12` [Example 5] yielded an EC50 greater than 3000 nM.
`CN(C)CCC(=O)N1CC=C2C(C)(C)C(c3ccc(C(=O)O)cc3)=CC[C@]2(C)C1` [Example 34] was tested, and the EC50 was greater than 3000 nM.
`CC(C)C[C@H](N)C(=O)N1CCC(C(=O)N2CC=C3C(C)(C)C(c4ccc(C(=O)O)cc4)=CC[C@]3(C)C2)(c2ccccc2)CC1` [Example 56] gave an EC50 of less than 500 nM.
With `CC1(C)C(c2ccc(C(=O)O)cc2)=CC[C@]2(C)CN(C(=O)c3cccc(C(=O)N4CC=C5C(C)(C)C(c6ccc(C(=O)O)cc6)=CC[C@]5(C)C4)n3)CC=C12` [Example 61] the EC50 was greater than 3000 nM.
With `CC1(C)C(c2ccc(C(=O)O)cc2)=CC[C@]2(C)CN(C(=O)c3ccc(C(=O)N4CCS(=O)(=O)CC4)cc3)CC=C12` [Example 69] the EC50 was greater than 3000 nM.
For `CC1(C)C(c2ccc(C(=O)O)cc2)=CC[C@]2(C)CN(c3ncccn3)CC=C12` [Example B11], the EC50 was greater than 3000 nM.
`CC1(C)C(c2ccc(C(=O)O)cc2)=CC[C@]2(C)CN(C(=O)c3cc(F)ccc3F)CC=C12` [Example 6] showed an EC50 greater than 3000 nM.
In the case of `CC(C)C[C@@H](NC(=O)OC(C)(C)C)C(=O)N1CCC(C(=O)N2CC[C@H]3C(C)(C)[C@@H](c4ccc(C(=O)O)cc4)CC[C@]3(C)C2)(c2ccccc2)CC1` [Example 86], the EC50 is reported as less than 500 nM.
In the case of `CC1(C)C(c2ccc(C(=O)O)cc2)=CC[C@]2(C)CN(C(=O)C(=O)N3CC=C4C(C)(C)C(c5ccc(C(=O)O)cc5)=CC[C@]4(C)C3)CC=C12` [Example 9], the EC50 is reported as greater than 3000 nM.
Work on `CC1(C)C(c2ccc(C(=O)O)cc2)=CC[C@]2(C)CN(C(=O)c3ccc4[nH]nnc4c3)CC=C12` [Example 42] yielded an EC50 greater than 3000 nM.
`CN(C)CC(=O)N1CC=C2C(C)(C)C(c3ccc(C(=O)O)cc3)=CC[C@]2(C)C1` [Example 35] was tested, and the EC50 was greater than 3000 nM.
Work on `Cc1ccc2nc(-c3ccccc3C(=O)N3CC=C4C(C)(C)C(c5ccc(C(=O)O)cc5)=CC[C@]4(C)C3)[nH]c2c1C` [Example 98] yielded an EC50 of less than 500 nM.
`CC1(C)C(c2ccc(C(=O)O)cc2)=CC[C@]2(C)CN(C(=O)c3ccc(F)c(F)c3)CC=C12` [Example 7] was tested, and the EC50 was greater than 3000 nM.
`Cn1c(-c2ccccc2C(=O)N2CC=C3C(C)(C)C(c4ccc(C(=O)O)cc4)=CC[C@]3(C)C2)nc2ccccc21` [Example A274] gave an EC50 greater than 3000 nM.
`CC1(C)C(c2ccc(C(=O)O)cc2)=CC[C@]2(C)CN(C(=O)c3ccc4[nH]ccc4c3)CC=C12` [Example 43] was tested, and the EC50 was greater than 3000 nM.
With `CC1(C)C(c2ccc(C(=O)O)cc2)=CC[C@]2(C)CN(C(=O)CCN3CCS(=O)(=O)CC3)CC=C12` [Example 36] the EC50 was greater than 3000 nM.
Work on `COc1cccc(C(=O)N2CC=C3C(C)(C)C(c4ccc(C(=O)O)cc4)=CC[C@]3(C)C2)c1` [Example 18] yielded an EC50 greater than 3000 nM.
In the case of `CC1(C)C(c2ccc(C(=O)O)cc2)=CC[C@]2(C)CN(C(=O)c3cccc(C(=O)O)c3)CC=C12` [Example 12], the EC50 is reported as greater than 3000 nM.
`CC1(C)C(c2ccc(C(=O)O)cc2)=CC[C@]2(C)CN(C(=O)c3ccc(CN)cc3)CC=C12` [Example 53] was tested, and the EC50 was greater than 3000 nM.
`CC1(C)C(c2ccc(C(=O)O)cc2)=CC[C@]2(C)CN(C(=O)C3(c4ccc(F)cc4)CCCC3)CC=C12` [Example A111] gave an EC50 greater than 3000 nM.
`CC1(C)C(c2ccc(C(=O)O)cc2)=CC[C@]2(C)CN(C(=O)c3ccc(CN4CCS(=O)(=O)CC4)cc3)CC=C12` [Example 31] gave an EC50 greater than 3000 nM.
`CC(C)(C)OC(=O)N[C@H]1CC[C@@H](C(=O)N2CC=C3C(C)(C)C(c4ccc(C(=O)O)cc4)=CC[C@]3(C)C2)CC1` [Example 16] showed an EC50 greater than 3000 nM.
For `CC1(C)C(c2ccc(C(=O)O)cc2)=CC[C@]2(C)CN(C(=O)c3cncc(C(=O)NCCCN4CCS(=O)(=O)CC4)c3)CC=C12` [Example 71], the EC50 was greater than 3000 nM.
In the case of `CC1(C)C(c2ccc(C(=O)O)cc2)=CC[C@]2(C)CN(C(=O)c3ccccc3-c3nc4cc(C(=O)O)ccc4n3Cc3cccnc3)CC=C12` [Example A293], the EC50 is reported as greater than 3000 nM.
`CC1(C)C(c2ccc(C(=O)O)cc2)=CC[C@]2(C)CN(c3ncc(C(=O)O)s3)CC=C12` [Example B12] showed an EC50 greater than 3000 nM.
Work on `CC(C)(C)OC(=O)NCc1ccc(C(=O)N2CC=C3C(C)(C)C(c4ccc(C(=O)O)cc4)=CC[C@]3(C)C2)cc1` [Example 33] yielded an EC50 greater than 3000 nM.
In the case of `CC1(C)C(c2ccc(C(=O)O)cc2)=CC[C@]2(C)CN(CCN3CCS(=O)(=O)CC3)CC=C12` [Example 79], the EC50 is reported as greater than 3000 nM.
With `CCOC(=O)c1cnc(N2CC=C3C(C)(C)C(c4ccc(C(=O)O)cc4)=CC[C@]3(C)C2)s1` [Example B14] the EC50 was 500 to 3000 nM.
For `CC(C)S(=O)(=O)N1CCC(C(=O)N2CC=C3C(C)(C)C(c4ccc(C(=O)O)cc4)=CC[C@]3(C)C2)(c2ccccc2)CC1` [Example A195], the EC50 was less than 500 nM.
`CC1(C)C(c2ccc(C(=O)O)cc2)=CC[C@]2(C)CN(C(=O)c3cncc(C(=O)N4CC=C5C(C)(C)C(c6ccc(C(=O)O)cc6)=CC[C@]5(C)C4)c3)CC=C12` [Example 63] gave an EC50 greater than 3000 nM.
`CC1(C)C(c2ccc(C(=O)O)cc2)=CC[C@]2(C)CN(C(=O)c3ccc(F)cc3)CC=C12` [Example 3] was tested, and the EC50 was greater than 3000 nM.
Work on `CC1(C)C(c2ccc(C(=O)O)cc2)=CC[C@]2(C)CN(C(=O)c3cccc(C(=O)NCCCN4CCS(=O)(=O)CC4)c3)CC=C12` [Example 66] yielded an EC50 greater than 3000 nM.
Work on `CN(C)c1ccccc1C(=O)N1CC=C2C(C)(C)C(c3ccc(C(=O)O)cc3)=CC[C@]2(C)C1` [Example 23] yielded an EC50 greater than 3000 nM.

Same assay, conditions: Renilla, NL43, read-out: 10% FBS EC50, 10% FBS, numeric values
`CC(C)C[C@@H](NC(=O)OC(C)(C)C)C(=O)N1CCC(C(=O)N2CC=C3C(C)(C)C(c4ccc(C(=O)O)cc4)=CC[C@]3(C)C2)(c2ccccc2)CC1` [Example 92, 4-((S)-2-(1-((tert-butoxycarbonyl)-D-leucyl)-4-phenylpiperidine-4-carbonyl)-5,5,8a-trimethyl-1,2,3,5,8,8a-hexahydroisoquinolin-6-yl)benzoic acid] was tested, and the EC50 was 8 nM.
`CC(C)(C)OC(=O)N1CCC(C(=O)N2CC=C3C(C)(C)C(c4ccc(C(=O)O)cc4)=CC[C@]3(C)C2)(c2ccccc2)CC1` [Example 46] was tested, and the EC50 was 250 nM.
Molecule `CC1(C)C(c2ccc(C(=O)O)cc2)=CC[C@]2(C)CN(C3CCC(CN(CCN4CCS(=O)(=O)CC4)CCN4CCS(=O)(=O)CC4)(c4ccccc4)CC3)CC=C12` (stereo partly drawn) [Example C4, (S)-4-(2-(4-((bis(2-(1,1-dioxidothiomorpholino)ethyl)amino)methyl)-4-phenylcyclohexyl)-5,5,8a-trimethyl-1,2,3,5,8,8a-hexahydroisoquinolin-6-yl)benzoic acid] has an EC50 greater than 3000 nM.
For `CC1(C)C(c2ccc(C(=O)O)cc2)=CC[C@]2(C)CN(c3nc4ccccc4s3)CC=C12` [Example 80], the EC50 was 179 nM.
`CC(C)(C)OC(=O)N1CSC[C@@H]1C(=O)N1CCC(C(=O)N2CC=C3C(C)(C)C(c4ccc(C(=O)O)cc4)=CC[C@]3(C)C2)(c2ccccc2)CC1` [Example A204] was tested, and the EC50 was 309 nM.
`CC1(C)C(c2ccc(C(=O)O)cc2)=CC[C@]2(C)CN(c3cc(-c4nnn(CCN5CCS(=O)(=O)CC5)n4)cc([N+](=O)[O-])c3)CC=C12` [Example B1, (S)-4-(2-(3-(2-(2-(1,1-dioxidothiomorpholino)ethyl)-2H-tetrazol-5-yl)-5-nitrophenyl)-5,5,8a-trimethyl-1,2,3,5,8,8a-hexahydroisoquinolin-6-yl)benzoic acid] showed an EC50 of 24 nM.
In the case of `CC1(C)C(c2ccc(C(=O)O)cc2)=CC[C@]2(C)CN(C(=O)[C@H]3CC[C@H](N)CC3)CC=C12` [Example 52], the EC50 is reported as 3620 nM.
Work on `CC(C)C[C@@H](N)C(=O)N1CCC(C(=O)N2CC=C3C(C)(C)C(c4ccc(C(=O)O)cc4)=CC[C@]3(C)C2)(c2ccccc2)CC1` [Example 57] yielded an EC50 of 148 nM.
In the case of `CC(C)(C)OC(=O)N1CCC(C(=O)N2CCC3C(C)(C)[C@@H](c4ccc(C(=O)O)cc4)CC[C@]3(C)C2)(c2ccccc2)CC1` (stereo partly shown) [Example 84], the EC50 is reported as 50 nM.
`CC1(C)C(c2ccc(C(=O)O)cc2)=CC[C@]2(C)CN(C(=O)c3ccccc3N3CCN(CCN4CCS(=O)(=O)CC4)CC3)CC=C12` [Example 44] was tested, and the EC50 was 520 nM.
With `CC1(C)C(c2ccc(C(=O)O)cc2)=CC[C@]2(C)CN(C(=O)c3ccccc3-c3nc4ccccc4n3-c3ccccc3)CC=C12` [Example A279] the EC50 was 390 nM.
Molecule `CC1(C)C(c2ccc(C(=O)O)cc2)=CC[C@]2(C)CN(C(=O)c3ccccc3-c3nc4cc(F)c(Cl)cc4[nH]3)CC=C12` [Example A260] has an EC50 of 298 nM.
For `CC(C)(C)OC(=O)N1CCC(C(=O)N2CC=C3C(C)(C)C(c4ccc(C(=O)O)cc4)=CC[C@]3(C)C2)(C2CCCCC2)CC1` [Example 50], the EC50 was 290 nM.
Work on `CC1(C)C(c2ccc(C(=O)O)cc2)=CC[C@]2(C)CN(C(=O)c3ccc4cc[nH]c4c3)CC=C12` [Example 39] yielded an EC50 of 1490 nM.
With `Cc1cc2nc(-c3ccccc3C(=O)N3CC=C4C(C)(C)C(c5ccc(C(=O)O)cc5)=CC[C@]4(C)C3)[nH]c2cc1C` [Example 97, (S)-4-(2-(2-(5,6-dimethyl-1H-benzo[d]imidazol-2-yl)benzoyl)-5,5,8a-trimethyl-1,2,3,5,8,8a-hexahydroisoquinolin-6-yl)benzoic acid] the EC50 was 51 nM.

Reference: patent publication US10493070B2 (priority 2016, dated 2019)
